Melting point data for 28 compounds are collected here from patent publication US20040067955A1, “Pyridazinone compound and pharmaceutical use thereof” (Fujisawa Pharmaceutical Co. Ltd., priority 2002, published 2004).

What is called melting point is the temperature, or range, at which the solid turns liquid.

Compound `CC(C)n1nc(-c2cc(C(=O)N3CCN(C)CC3)cnc2-c2ccccc2)ccc1=O` [Example 19, 2-Isopropyl-6-{5-[(4-methyl-1-piperazinyl)carbonyl]-2-phenyl-3-pyridyl}-3(2H)-pyridazinone] showed a melting point of 165 to 166 °C.
Compound `CC(C)n1nc(-c2cc(Cl)c(N)nc2-c2ccccc2)ccc1=O` [Example 34, 6-(6-amino-5-chloro-2-phenyl-3-pyridyl)-2-isopropyl-3 (2H)-pyridazinone] gave a melting point of 207 to 208 °C.
To `COc1nc(-c2ccccc2)c(-c2ccc(=O)n(C(C)C)n2)cc1C#N` [Example 10, 5-(1-isopropyl-6-oxo-1,6-dihydro-3-pyridazinyl)-2-methoxy-6-phenylnicotinonitrile] belongs 187 to 189 °C; to `CC(C)n1nc(-c2cc(-c3ncnn3C)c(N)nc2-c2ccccc2)ccc1=O` [Example 122, 6-[6-amino-5-(1-methyl-1H-1,2,4-triazol-5-yl)-2-phenyl-3-pyridyl]-2-isopropyl-3 (2H)-pyridazinone], 253 to 254 °C; to `CC(C)n1nc(-c2cc(N)cnc2-c2ccccc2)ccc1=O` [Example 26, 6-(5-amino-2-phenyl-3-pyridyl)-2-isopropyl-3 (2H)-pyridazinone], 147 to 148 °C.
`COC(=O)c1nc(-c2ccccc2)c(-c2ccc(=O)n(C(C)C)n2)cc1C#N` [Example 9, methyl 3-cyano-5-(1-isopropyl-6-oxo-1,6-dihydro-3-pyridazinyl)-6-phenyl-2-pyridinecarboxylate] gave a melting point of 136 to 138 °C.
As for `CC(C)n1nc(-c2cc(C#N)c(=O)[nH]c2-c2ccccc2)ccc1=O` [Example 1, 5-(1-isopropyl-6-oxo-1,6-dihydro-3-pyridazinyl)-2-oxo-6-phenyl-1,2-dihydro-3-pyridine-carbonitrile], the figure is over 250 °C.
To `CC(C)n1nc(-c2cc(C(=O)NCCN3CCOCC3)cnc2-c2ccccc2)ccc1=O` [Example 22, 5-(1-Isopropyl-6-oxo-1,6-dihydro-3-pyridazinyl)-N-[2-(4-morpholinyl)ethyl]-6-phenylnicotinamide] belongs 162 to 163 °C; to `CC(C)n1nc(-c2ccc(N)nc2-c2ccccc2)ccc1=O` [Example 32, 6-(6-amino-2-phenyl-3-pyridyl)-2-isopropyl-3(2H)-pyridazinone], 167 to 171 °C; to `CC(C)n1nc(-c2cc(C(N)=O)c(Cl)nc2-c2ccccc2)ccc1=O` [Example 5, 2-chloro-5-(1-isopropyl-6-oxo-1,6-dihydro-3-pyridazinyl)-6-phenylnicotinamide], 199 to 200 °C.
To `CC(C)n1nc(-c2cc(C#N)c(C(=O)O)nc2-c2ccccc2)ccc1=O` [Example 11, 3-cyano-5-(1-isopropyl-6-oxo-1,6-dihydro-3-pyridazinyl)-6-phenyl-2-pyridinecarboxylic acid] belongs 196 to 198 °C; to `CC(C)n1nc(-c2cc(-n3cccc3)cnc2-c2ccccc2)ccc1=O` [Example 29, 2-isopropyl-6-[2-phenyl-5-(1H-pyrrol-1-yl)-3-pyridyl]-3(2H)-pyridazinone], 189 to 190 °C; to `CC(C)n1nc(-c2cc(C#N)cnc2-c2ccccc2)ccc1=O` [Example 8, 5-(1-isopropyl-6-oxo-1,6-dihydro-3-pyridazinyl)-6-phenylnicotinonitrile], 133 to 135 °C.
Take `CC(C)n1nc(-c2ccc(OCC(N)=O)nc2-c2ccccc2)ccc1=O` [Example 31, 2-{[5-(1-isopropyl-6-oxo-1,6-dihydro-3-pyridazinyl)-6-phenyl-2-pyridyl]oxy}acetamide]: the melting point lay in the range of 137 to 138 °C.
For the compound `CC(C)n1nc(-c2cc(C(=O)NCc3ccccc3)cnc2-c2ccccc2)ccc1=O` [Example 16, N-Benzyl-5-(1-isopropyl-6-oxo-1,6-dihydro-3-pyridazinyl)-6-phenylnicotinamide], the melting point was 205 to 206 °C.
Compound `CNC(=O)c1cnc(-c2ccccc2)c(-c2ccc(=O)n(C(C)C)n2)c1` [Example 15, 5-(1-isopropyl-6-oxo-1,6-dihydro-3-pyridazinyl)-N-methyl-6-phenyl-nicotinamide] gave a melting point of 212 to 213 °C.
As for `CC(=O)c1cnc(-c2ccccc2)c(-c2ccc(=O)n(C(C)C)n2)c1` [Example 23, 6-(5-acetyl-2-phenyl-3-pyridyl)-2-isopropyl-3(2H)-pyridazinone], the figure is 207 to 208 °C.
To `CC(C)n1nc(-c2cc(C(N)=O)cnc2-c2ccccc2)ccc1=O` [Example 6, 5-(1-isopropyl-6-oxo-1,6-dihydro-3-pyridazinyl)-6-phenylnicotinamide] belongs 229 to 230 °C; to `CC(=O)Nc1cnc(-c2ccccc2)c(-c2ccc(=O)n(C(C)C)n2)c1` [Example 28, N-[5-(1-Isopropyl-6-oxo-1,6-dihydro-3-pyridazinyl)-6-phenyl-3-pyridyl]acetamide], 207 to 208 °C; to `CC(C)n1nc(-c2cc(I)c(N)nc2-c2ccccc2)ccc1=O` [Example 35, 6-(6-amino-5-iodo-2-phenyl-3-pyridyl)-2-isopropyl-3 (2H)-pyridazinone], 196 to 197 °C.
`CC(C)n1nc(-c2cc(C(=O)N3CCOCC3)cnc2-c2ccccc2)ccc1=O` [Example 18, 2-Isopropyl-6-[5-(4-morpholinylcarbonyl)-2-phenyl-3-pyridyl]-3 (2H)-pyridazinone] came in with a melting point of 132 to 133 °C.
To `CC(C)n1nc(-c2cc(-c3ccccc3)c(N)nc2-c2ccccc2)ccc1=O` [Example 36, 6-(6-amino-2,5-diphenyl-3-pyridyl)-2-isopropyl-3 (2H)-pyridazinone] belongs 208 to 209 °C.
As for `CC(C)n1nc(-c2cc(C#N)c(Cl)nc2-c2ccccc2)ccc1=O` [Example 2, 2-chloro-5-(1-isopropyl-6-oxo-1,6-dihydro-3-pyridazinyl)-6-phenylnicotinonitrile], the melting point was 191 to 192 °C.
In turn, `CC(C)n1nc(-c2cc(C#N)c(C(N)=O)nc2-c2ccccc2)ccc1=O` [Example 12, 3-cyano-5-(1-isopropyl-6-oxo-1,6-dihydro-3-pyridazinyl)-6-phenyl-2-pyridinecarboxamide] gave a melting point of 221 to 223 °C.
In turn, `CC(C)n1nc(-c2cc(C(=O)O)c(=O)[nH]c2-c2ccccc2)ccc1=O` [Example 13, 5-(1-isopropyl-6-oxo-1,6-dihydro-3-pyridazinyl)-2-oxo-6-phenyl-1,2-dihydro-3-pyridinecarboxylic acid] gave a melting point of 212 to 215 °C.
To `CC(C)n1nc(-c2cc(C(N)=O)c(N)nc2-c2ccccc2)ccc1=O` [Example 7, 2-Amino-5-(1-isopropyl-6-oxo-1,6-dihydro-3-pyridazinyl)-6-phenylnicotinamide] belongs over 250 °C; to `CC(C)n1nc(-c2c(-c3ccccc3)nc(Cl)c(N)c2Cl)ccc1=O` [Example 77, 6-(5-amino-4,6-dichloro-2-phenyl-3-pyridyl)-2-isopropyl-3(2H)-pyridazinone], 186 to 188 °C.
Regarding `CC(C)n1nc(-c2ccc(=O)[nH]c2-c2ccccc2)ccc1=O` [Example 30, 2-isopropyl-6-(6-oxo-2-phenyl-1,6-dihydro-3-pyridyl)-3(2H)-pyridazinone], the melting point lay in the range of 107 to 109 °C.
